Results on 10 compounds are retold here after BindingDB's records for PubMed 8627566 (Hoechst Marion Roussel, 1996).

Assay [1] concerns the target T1, Substance-K receptor (Homo sapiens, UniProt P21452).
T1 sequence (P21452 whole entry): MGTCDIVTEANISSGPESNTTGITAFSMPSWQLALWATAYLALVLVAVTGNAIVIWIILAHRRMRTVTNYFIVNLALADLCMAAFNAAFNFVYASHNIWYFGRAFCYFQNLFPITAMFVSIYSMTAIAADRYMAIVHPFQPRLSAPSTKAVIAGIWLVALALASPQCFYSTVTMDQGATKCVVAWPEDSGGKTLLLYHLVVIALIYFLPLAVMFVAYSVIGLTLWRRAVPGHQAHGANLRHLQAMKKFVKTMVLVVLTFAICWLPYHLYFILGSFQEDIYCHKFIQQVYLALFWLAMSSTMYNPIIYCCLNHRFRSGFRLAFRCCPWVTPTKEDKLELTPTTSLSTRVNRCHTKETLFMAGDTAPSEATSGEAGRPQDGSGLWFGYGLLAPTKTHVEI

Assay [2] addresses T2, Neuromedin-K receptor (Cavia porcellus, UniProt P30098).
T2 sequence (P30098 whole entry): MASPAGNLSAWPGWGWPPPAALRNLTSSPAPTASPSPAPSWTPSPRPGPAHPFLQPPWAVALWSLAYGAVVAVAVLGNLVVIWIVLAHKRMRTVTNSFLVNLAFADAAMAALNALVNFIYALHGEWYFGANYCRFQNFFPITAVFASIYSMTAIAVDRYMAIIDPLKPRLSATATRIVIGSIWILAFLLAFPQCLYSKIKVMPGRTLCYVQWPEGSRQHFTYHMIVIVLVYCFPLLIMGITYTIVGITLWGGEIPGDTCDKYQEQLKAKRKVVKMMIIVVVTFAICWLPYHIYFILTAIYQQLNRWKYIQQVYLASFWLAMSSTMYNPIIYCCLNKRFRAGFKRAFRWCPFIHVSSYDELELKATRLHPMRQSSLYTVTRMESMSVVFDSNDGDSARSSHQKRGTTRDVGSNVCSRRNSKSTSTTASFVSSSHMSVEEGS

The target in assay [3] is Substance-P receptor (Cavia porcellus, UniProt P30547).
The target of assay [4] is T3, Substance-K receptor (Mesocricetus auratus, UniProt P51144).
T3 sequence (P51144 whole entry): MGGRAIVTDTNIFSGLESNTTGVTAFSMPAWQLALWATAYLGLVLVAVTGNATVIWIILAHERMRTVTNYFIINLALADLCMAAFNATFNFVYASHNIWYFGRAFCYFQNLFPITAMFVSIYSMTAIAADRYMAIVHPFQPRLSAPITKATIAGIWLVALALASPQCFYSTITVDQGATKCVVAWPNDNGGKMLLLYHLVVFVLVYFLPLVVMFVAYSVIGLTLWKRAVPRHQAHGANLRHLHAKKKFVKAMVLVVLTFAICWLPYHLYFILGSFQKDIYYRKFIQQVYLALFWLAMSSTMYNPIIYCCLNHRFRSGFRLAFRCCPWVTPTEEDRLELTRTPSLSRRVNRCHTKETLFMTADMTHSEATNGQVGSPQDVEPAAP

Assay [5] addresses Substance-P receptor (Rattus norvegicus, UniProt P14600).
For assay [6], the target named is T4, Substance-K receptor (Bos taurus, UniProt P05363).
T4 sequence (P05363 whole entry): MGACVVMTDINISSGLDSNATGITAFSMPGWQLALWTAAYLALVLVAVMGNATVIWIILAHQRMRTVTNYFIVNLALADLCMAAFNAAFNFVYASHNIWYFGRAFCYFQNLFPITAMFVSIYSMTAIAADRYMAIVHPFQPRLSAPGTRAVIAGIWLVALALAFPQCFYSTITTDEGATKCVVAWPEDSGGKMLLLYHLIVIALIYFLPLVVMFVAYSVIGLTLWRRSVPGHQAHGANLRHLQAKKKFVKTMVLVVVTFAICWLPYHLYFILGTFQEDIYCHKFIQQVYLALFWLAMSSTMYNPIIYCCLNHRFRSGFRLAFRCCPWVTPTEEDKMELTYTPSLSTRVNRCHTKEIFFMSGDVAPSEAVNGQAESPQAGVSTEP

Assay [7] addresses Substance-P receptor (Homo sapiens, UniProt P25103).

Starred links: 1 amine or outer side, 2 acyl side, 3 side chain; linkers in the order of their positions; H or OH if unused. Positions of bridges follow the written chain, without caps; N, C: chain ends. Non-standard residues stand in square brackets, D forms with d. Residues, ends and D or L forms follow the SMILES beside them. *: point of attachment. X2 = CN(C(=Cc1ccc(O)cc1)C(=O)[*:2])[*:1]; X1 = CCCCCc1ccccc1CCC(=O)*

Sequence of Substance-P receptor (Rattus norvegicus, UniProt P14600) (P14600 whole entry): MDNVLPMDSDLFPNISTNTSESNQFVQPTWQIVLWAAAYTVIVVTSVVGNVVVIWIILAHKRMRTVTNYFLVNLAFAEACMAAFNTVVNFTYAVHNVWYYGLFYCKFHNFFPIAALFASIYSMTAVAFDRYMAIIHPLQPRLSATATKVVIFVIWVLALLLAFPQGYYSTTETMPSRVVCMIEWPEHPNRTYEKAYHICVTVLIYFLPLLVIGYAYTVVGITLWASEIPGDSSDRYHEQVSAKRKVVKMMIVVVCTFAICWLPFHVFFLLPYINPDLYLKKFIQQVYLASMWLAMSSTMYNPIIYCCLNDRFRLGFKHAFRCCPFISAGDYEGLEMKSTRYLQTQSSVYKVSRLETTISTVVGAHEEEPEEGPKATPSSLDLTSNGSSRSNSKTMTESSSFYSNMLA
Sequence of Substance-P receptor (Homo sapiens, UniProt P25103) (P25103 whole entry): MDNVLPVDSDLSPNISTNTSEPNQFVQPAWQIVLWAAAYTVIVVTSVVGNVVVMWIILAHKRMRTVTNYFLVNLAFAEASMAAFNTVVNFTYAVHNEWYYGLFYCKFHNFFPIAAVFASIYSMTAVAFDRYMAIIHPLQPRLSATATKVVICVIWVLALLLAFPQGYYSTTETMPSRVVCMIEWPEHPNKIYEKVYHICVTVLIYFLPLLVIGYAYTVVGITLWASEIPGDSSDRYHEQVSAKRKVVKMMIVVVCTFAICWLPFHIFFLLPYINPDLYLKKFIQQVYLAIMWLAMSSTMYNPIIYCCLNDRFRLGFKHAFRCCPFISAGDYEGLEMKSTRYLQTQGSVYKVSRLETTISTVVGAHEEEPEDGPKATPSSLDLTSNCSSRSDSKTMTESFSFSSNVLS
Sequence of Substance-P receptor (Cavia porcellus, UniProt P30547) (P30547 whole entry): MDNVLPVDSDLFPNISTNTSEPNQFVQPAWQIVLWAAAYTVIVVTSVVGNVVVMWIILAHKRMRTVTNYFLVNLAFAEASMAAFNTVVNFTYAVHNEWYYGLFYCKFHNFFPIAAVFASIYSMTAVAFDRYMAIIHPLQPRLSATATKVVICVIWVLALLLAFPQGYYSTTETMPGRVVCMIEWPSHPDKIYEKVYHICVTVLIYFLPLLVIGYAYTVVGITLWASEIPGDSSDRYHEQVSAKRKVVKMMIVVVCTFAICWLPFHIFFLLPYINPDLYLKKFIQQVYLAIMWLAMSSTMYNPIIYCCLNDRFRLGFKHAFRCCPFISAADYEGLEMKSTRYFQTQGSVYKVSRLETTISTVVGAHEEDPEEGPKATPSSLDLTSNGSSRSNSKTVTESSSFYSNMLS

Broadly, the Ki is the dissociation constant of the complex between target and ligand, obtained from inhibition or displacement. A lower Ki goes with a stronger hold on the target. In the case of `COc1ccccc1CN[C@H]1C2CCN(CC2)[C@H]1C(c1ccccc1)c1ccccc1`, the Ki in assay [1] and in assay [2] was > 10000 nM each time.
As to `COc1cc(C(=O)N2CC[C@@](CCN3CCC(C(N)=O)(c4ccccc4)CC3)(c3ccc(Cl)c(Cl)c3)C2)cc(OC)c1OC`, the Ki in assay [3] came out at 2.12 nM; in assay [4], 6.98 nM; in assay [1], 8.4 nM; in assay [5], 408 nM; in assay [6], 8.49 nM; in assay [7] it was 3.11 nM. Besides, the Ki in assay [2] was determined as 21 nM.
Consider `COc1cc(C(=O)N2CC[C@](CCN3CCC(C(N)=O)(c4ccccc4)CC3)(c3ccc(Cl)c(Cl)c3)C2)cc(OC)c1OC`, for which the Ki in assay [3] turned out to be 5.88 nM; in assay [1] it was 21 nM; in assay [7], 7.07 nM; in assay [2] it was 54.3 nM.
As to `COc1cc(C(=O)N2CC[C@](CCN3CCC(C(N)=O)(c4ccccc4)CC3)(c3ccc(Cl)c(Cl)c3)C2)cc(OC)c1OC` [1-{2-[(R)-3-(3,4-Dichloro-phenyl)-1-(3,4,5-trimethoxy-benzoyl)-pyrrolidin-3-yl]-ethyl}-4-phenyl-piperidine-4-carboxylic acid amide], the Ki in assay [3] came out at 183 nM; in assay [4], 711 nM; in assay [1], 760 nM; in assay [5], 2200 nM; in assay [6], 207 nM; in assay [7] it was 160 nM. Further, in assay [2], the Ki was 2310 nM.
As to `CCCCCc1ccccc1CCC(=O)NC1C(=O)N(C)C(=Cc2ccc(O)cc2)C(=O)NC(CC(C)C)C(=O)NC(Cc2ccccc2)C(=O)NC(C(C)O)C(=O)NC(CC(N)=O)C(=O)NC(CO)C(=O)OC1C` (stereo not given) [CAS_6437864] (X1-T[X2]LFTNS; ester 1-C; configuration not given here), the Ki was 98.7 nM in assay [3]; 3590 nM in assay [4]; 434 nM in assay [1]; 228 nM in assay [5]; 311 nM in assay [6]; 215 nM in assay [7]. The Ki in assay [2] amounted to 3550 nM.
As to `CN(Cc1ccccc1)C(=O)[C@@H](Cc1ccc2ccccc2c1)NC(=O)C1C[C@@H](O)CN1C(=O)c1cn(C)c2ccccc12` (stereo not given in full) [FK 888], the Ki in assay [3] was 3.13 nM; in assay [1], 1520 nM; in assay [5], 2070 nM; in assay [7] it was 1.49 nM; in assay [2] it was 5620 nM.
Take `COc1cc(C(=O)N2CC[C@@](CCN3CCC(C(N)=O)(c4ccccc4)CC3)(c3ccc(Cl)c(Cl)c3)C2)cc(OC)c1OC` [MDL 105,212A (R)-enantiomer]: the Ki in assay [3] is 2.99 nM; in assay [1], 7.93 nM; in assay [6], 8.4 nM; in assay [7], 3.69 nM.
Turning to `CSCC[C@H](NC(=O)[C@H](CC(C)C)NC(=O)CNC(=O)[C@@H](NC(=O)[C@H](Cc1ccccc1)NC(=O)[C@H](CO)NC(=O)[C@H](CC(=O)O)NC(=O)[C@@H](NC(=O)[C@H](CCCCN)NC(=O)[C@@H](N)Cc1cnc[nH]1)[C@@H](C)O)C(C)C)C(N)=O` [Neurokinin alpha], the Ki in assay [4] turned out to be 1.8 nM.
In the case of `COc1ccccc1CC(=N)N1C[C@@H]2C(=O)CCC(c3ccccc3)(c3ccccc3)[C@@H]2C1` [RP-67580], the Ki in assay [3] is 36 nM; in assay [5], 8.29 nM.
Regarding `CC(=O)NC1(c2ccccc2)CCN(CCC(CN(C)C(=O)c2ccccc2)c2ccc(Cl)c(Cl)c2)CC1` (stereo not given) [SR 48968], the Ki was determined as 217 nM in assay [3]; 7.32 nM in assay [4]; 0.44 nM in assay [1]; 0.71 nM in assay [6]; 593 nM in assay [7]; 208 nM in assay [2].
